Values quoted from earlier work, collected in patent publication US6514490B2, “Compositions containing an antifungal and a cationic agent” (Janssen Pharmaceutica N.V., priority 1997, dated 2003).

Details: prior art medicated shampoo, anti-dandruff treatment

CC(=O)N1CCN(c2ccc(OCC3COC(Cn4ccnc4)(c4ccc(Cl)cc4Cl)O3)cc2)CC1 (centres unmarked) [ketoconazole]
number of patients not responding to particular medicated shampoo: up to 30%

S=[Se]=S [selenium sulfide]
number of patients not responding to particular medicated shampoo: up to 40%
